Data taken from US20250367185A1, “TRANSLESION SYNTHESIS POLYMERASE INHIBITORS AND USES THEREOF” (THE UNIVERSITY OF VERMONT AND STATE AGRICULTURAL COLLEGE, priority 2022, published 2025).

Test system: HPRT (hypoxanthine phosphoribosyltransferase) gene in A549-ACE2+ cells infected with SARS-COV-2
Assay: HPRT mutagenesis in SARS-COV-2 infected cells
Format: cell-based

## CC(C)CC(=O)c1c(Nc2ccc(C(=O)O)cc2Cl)[nH]c2c(Cl)ccc([N+](=O)[O-])c2c1=O [Compound 1, 3-chloro-4-((8-chloro-3-(3-methylbutanoyl)-5-nitro-4-oxo-1,4-dihydroquinolin-2-yl)amino)benzoic acid]
  SARS-COV-2-dependent HPRT mutagenesis: suppress
